The source made the active and inactive calls. No cut-off for these calls is given here.
Key:
[1] = system: Aorta; test: Inhibition of noradrenaline-induced contractile response in rat aorta at 100 uM in presence of calcium; type: functional, tissue-based
[2] = system: Aorta; test: Inhibition of noradrenaline-induced contractile response in rat aorta in absence of calcium; type: functional, tissue-based

Row | Compound | Activity [1] | IC50 [2] [µM]
1 | CCO[C@@H]1CC(=O)O[C@H]2[C@H](O)[C@@H](c3ccccc3)O[C@H]21 | inactive | 
2 | O=C1C=C[C@@H]2O[C@H](c3ccccc3)[C@@H](O)[C@@H]2O1 [ALTHOLACTONE] | inactive | 78
3 | O=C1CC[C@@H]2O[C@H](c3ccccc3)[C@@H](O)[C@@H]2O1 [GONIOTHARVENSIN] | inactive | 80

From ChEMBL document CHEMBL1158879, “Preparation of 7-Alkoxylated Furanopyrones: Semisynthesis of ()-Etharvensin, a New Styryl-Lactone from Goniothalamus arvensis” (J Nat Prod, 1997)
